Measured values published in ChEMBL document CHEMBL1157046, “QSAR modeling of taxane analogues against colon cancer” (Eur J Med Chem, 2010).

What was measured:
[1] = test system: HCT-116; experiment: Cytotoxicity against human HCT116 cells after 72 hrs; assay type: functional, cell-based; conditions: HCT-116, 72 h
[2] = test system: HT-29; experiment: Cytotoxicity against human HT-29 cells; assay type: functional, cell-based

| Compound | IC50 [1] [nM] | IC50 [2] [nM] |
| --- | --- | --- |
| CC(=O)O[C@H]1C(=O)[C@@]2(C)[C@H]([C@H](OC(=O)c3ccccc3)[C@]3(O)C[C@H](OC(=O)[C@H](O)[C@@H](NC(=O)c4ccccc4)c4ccccc4)C(C)=C1C3(C)C)[C@]1(OC(=O)c3ccccc3)CO[C@@H]1C[C@@H]2O | 407 | – |
| CC(=O)O[C@H]1C(=O)[C@@]2(C)[C@H]([C@H](OC(=O)c3ccccc3)[C@]3(O)C[C@H](OC(=O)[C@H](O)[C@@H](NC(=O)c4ccccc4)c4ccccc4)C(C)=C1C3(C)C)[C@]1(OC(=O)c3ccc(F)cc3)CO[C@@H]1C[C@@H]2O | 794 | – |
| CC(=O)O[C@H]1C(=O)[C@@]2(C)[C@H]([C@H](OC(=O)c3ccccc3)[C@]3(O)C[C@H](OC(=O)[C@H](O)[C@@H](NC(=O)c4ccccc4)c4ccccc4)C(C)=C1C3(C)C)[C@]1(OC(=O)CF)CO[C@@H]1C[C@@H]2O | 7.08 | – |
| CC(=O)O[C@H]1C(=O)[C@@]2(C)[C@H]([C@H](OC(=O)c3ccccc3)[C@]3(O)C[C@H](OC(=O)[C@H](O)[C@@H](NC(=O)c4ccccc4)c4ccccc4)C(C)=C1C3(C)C)[C@]1(OC(=O)C(Cl)(Cl)Cl)CO[C@@H]1C[C@@H]2O | 3.98 | – |
| CC(=O)O[C@@]12CO[C@@H]1C[C@H](O)[C@@]1(C)C(=O)[C@H](O)C3=C(C)[C@@H](OC(=O)[C@H](O)[C@@H](NC(=O)C(C)(C)C)c4ccco4)[C@@H]4OC(=O)O[C@]4([C@@H](OC(=O)c4ccccc4)[C@H]21)C3(C)C | – | 0.603 |
| CC(=O)O[C@H]1C(=O)[C@@]2(C)[C@H]([C@H](OC(=O)c3ccccc3)[C@]34OC(=O)O[C@H]3[C@H](OC(=O)[C@H](O)[C@@H](NC(=O)C(C)(C)C)c3ccco3)C(C)=C1C4(C)C)[C@]1(OC(C)=O)CO[C@@H]1C[C@@H]2O | – | 0.603 |
| CC(=O)O[C@@]12CO[C@@H]1C[C@H](O)[C@@]1(C)C(=O)[C@H](O)C3=C(C)[C@@H](OC(=O)[C@H](O)[C@H](C=C(C)C)NC(=O)C(C)(C)C)[C@@H]4OC(=O)O[C@]4([C@@H](OC(=O)c4ccccc4)[C@H]21)C3(C)C | – | 0.501 |
| CC(=O)O[C@H]1C(=O)[C@@]2(C)[C@H]([C@H](OC(=O)c3ccccc3)[C@]34OC(=O)O[C@H]3[C@H](OC(=O)[C@H](O)[C@H](C=C(C)C)NC(=O)C(C)(C)C)C(C)=C1C4(C)C)[C@]1(OC(C)=O)CO[C@@H]1C[C@@H]2O | – | 2.4 |
| CCC(=O)O[C@H]1C(=O)[C@@]2(C)[C@H]([C@H](OC(=O)c3ccccc3)[C@]34OC(=O)O[C@H]3[C@H](OC(=O)[C@H](O)[C@H](C=C(C)C)NC(=O)C(C)(C)C)C(C)=C1C4(C)C)[C@]1(OC(C)=O)CO[C@@H]1C[C@@H]2O | – | 0.603 |
| CC(=O)O[C@@]12CO[C@@H]1C[C@H](O)[C@@]1(C)C(=O)[C@H](OC(=O)C3CC3)C3=C(C)[C@@H](OC(=O)[C@H](O)[C@H](C=C(C)C)NC(=O)C(C)(C)C)[C@@H]4OC(=O)O[C@]4([C@@H](OC(=O)c4ccccc4)[C@H]21)C3(C)C | – | 1 |
| CC(=O)O[C@@]12CO[C@@H]1C[C@H](O)[C@@]1(C)C(=O)[C@H](OC(=O)N(C)C)C3=C(C)[C@@H](OC(=O)[C@H](O)[C@H](C=C(C)C)NC(=O)C(C)(C)C)[C@@H]4OC(=O)O[C@]4([C@@H](OC(=O)c4ccccc4)[C@H]21)C3(C)C | – | 1.2 |
| C/C=C/C(=O)O[C@H]1C(=O)[C@@]2(C)[C@H]([C@H](OC(=O)c3ccccc3)[C@]34OC(=O)O[C@H]3[C@H](OC(=O)[C@H](O)[C@H](C=C(C)C)NC(=O)C(C)(C)C)C(C)=C1C4(C)C)[C@]1(OC(C)=O)CO[C@@H]1C[C@@H]2O | – | 1.51 |
| COC(=O)O[C@H]1C(=O)[C@@]2(C)[C@H]([C@H](OC(=O)c3ccccc3)[C@]34OC(=O)O[C@H]3[C@H](OC(=O)[C@H](O)[C@H](C=C(C)C)NC(=O)C(C)(C)C)C(C)=C1C4(C)C)[C@]1(OC(C)=O)CO[C@@H]1C[C@@H]2O | – | 0.708 |
| C/C=C/[C@H](NC(=O)C(C)(C)C)[C@@H](O)C(=O)O[C@@H]1C(C)=C2[C@@H](O)C(=O)[C@@]3(C)[C@H]([C@H](OC(=O)c4ccccc4)[C@@]4(OC(=O)O[C@@H]14)C2(C)C)[C@]1(OC(C)=O)CO[C@@H]1C[C@@H]3O | – | 1.91 |
| CCCCCC(=O)N[C@@H](C=C(C)C)[C@@H](O)C(=O)O[C@@H]1C(C)=C2[C@@H](OC(=O)C3CC3)C(=O)[C@@]3(C)[C@H]([C@H](OC(=O)c4ccccc4)[C@@]4(OC(=O)O[C@@H]14)C2(C)C)[C@]1(OC(C)=O)CO[C@@H]1C[C@@H]3O | – | 15.8 |
| CCCCCC(=O)N[C@@H](C=C(C)C)[C@@H](O)C(=O)O[C@@H]1C(C)=C2[C@@H](OC(=O)N(C)C)C(=O)[C@@]3(C)[C@H]([C@H](OC(=O)c4ccccc4)[C@@]4(OC(=O)O[C@@H]14)C2(C)C)[C@]1(OC(C)=O)CO[C@@H]1C[C@@H]3O | – | 5.13 |
| C/C=C/C(=O)O[C@H]1C(=O)[C@@]2(C)[C@H]([C@H](OC(=O)c3ccccc3)[C@]34OC(=O)O[C@H]3[C@H](OC(=O)[C@H](O)[C@H](C=C(C)C)NC(=O)CCCCC)C(C)=C1C4(C)C)[C@]1(OC(C)=O)CO[C@@H]1C[C@@H]2O | – | 28.2 |
| CC(=O)O[C@@]12CO[C@@H]1C[C@H](O)[C@@]1(C)C(=O)[C@H](O)C3=C(C)[C@@H](OC(=O)[C@H](O)[C@H](CC(C)C)NC(=O)C(C)(C)C)[C@@H]4OC(=O)O[C@]4([C@@H](OC(=O)c4ccccc4)[C@H]21)C3(C)C | – | 4.17 |

| Compound | IC50 [1] [nM] | IC50 [2] [nM] |
| --- | --- | --- |
| CC(=O)O[C@H]1C(=O)[C@@]2(C)[C@H]([C@H](OC(=O)c3ccccc3)[C@]34OC(=O)O[C@H]3[C@H](OC(=O)[C@H](O)[C@H](CC(C)C)NC(=O)C(C)(C)C)C(C)=C1C4(C)C)[C@]1(OC(C)=O)CO[C@@H]1C[C@@H]2O | – | 1.51 |
| CCC[C@H](NC(=O)C(C)(C)C)[C@@H](O)C(=O)O[C@@H]1C(C)=C2[C@@H](O)C(=O)[C@@]3(C)[C@H]([C@H](OC(=O)c4ccccc4)[C@@]4(OC(=O)O[C@@H]14)C2(C)C)[C@]1(OC(C)=O)CO[C@@H]1C[C@@H]3O | – | 3.8 |
| CCC[C@H](NC(=O)C(C)(C)C)[C@@H](O)C(=O)O[C@@H]1C(C)=C2[C@@H](OC(C)=O)C(=O)[C@@]3(C)[C@H]([C@H](OC(=O)c4ccccc4)[C@@]4(OC(=O)O[C@@H]14)C2(C)C)[C@]1(OC(C)=O)CO[C@@H]1C[C@@H]3O | – | 4.79 |
| CCC(=O)O[C@H]1C(=O)[C@@]2(C)[C@H]([C@H](OC(=O)c3cccc(N=[N+]=[N-])c3)[C@]3(O)C[C@H](OC(=O)[C@H](O)[C@@H](CC(=O)OC(C)(C)C)C(F)(F)F)C(C)=C1C3(C)C)[C@]1(OC(C)=O)CO[C@@H]1C[C@@H]2O | – | 0.398 |
| CC(=O)O[C@@]12CO[C@@H]1C[C@H](O)[C@@]1(C)C(=O)[C@H](O)C3=C(C)[C@@H](OC(=O)[C@H](O)[C@@H](NC(=O)OC(C)(C)C)C(F)(F)F)C[C@@](O)([C@@H](OC(=O)c4cccc(N=[N+]=[N-])c4)[C@H]21)C3(C)C | – | 0.708 |
| C/C=C/[C@H](NC(=O)C(C)(C)C)[C@@H](O)C(=O)O[C@@H]1C(C)=C2[C@@H](OC(C)=O)C(=O)[C@@]3(C)[C@H]([C@H](OC(=O)c4ccccc4)[C@@]4(OC(=O)O[C@@H]14)C2(C)C)[C@]1(OC(C)=O)CO[C@@H]1C[C@@H]3O | – | 3.02 |
| CC(=O)O[C@@H]1C2=C(C)[C@@H](OC(=O)[C@H](O)[C@@H](NC(=O)c3ccc(C)cc3)c3ccccc3)C[C@@](O)([C@@H](OC(=O)c3ccccc3)[C@@H]3[C@]4(OC(C)=O)CO[C@@H]4C[C@H](O)[C@@]3(C)[C@H]1O)C2(C)C | – | 0.0138 |
| CC(=O)O[C@@H]1C2=C(C)[C@@H](OC(=O)[C@H](O)[C@@H](NC(=O)OC(C)(C)C)c3ccccc3)C[C@@](O)([C@@H](OC(=O)c3ccccc3)[C@@H]3[C@]4(OC(C)=O)CO[C@@H]4C[C@H](O)[C@@]3(C)[C@H]1O)C2(C)C | – | 0.000186 |
| CC(=O)O[C@@H]1C2=C(C)[C@@H](OC(=O)[C@H](O)[C@@H](NC(=O)CC(C)(C)C)c3ccccc3)C[C@@](O)([C@@H](OC(=O)c3ccccc3)[C@@H]3[C@]4(OC(C)=O)CO[C@@H]4C[C@H](O)[C@@]3(C)[C@H]1O)C2(C)C | – | 0.0105 |
| CC(=O)O[C@@H]1C2=C(C)[C@@H](OC(=O)[C@H](O)[C@@H](NC(=O)OCC(C)(C)C)c3ccccc3)C[C@@](O)([C@@H](OC(=O)c3ccccc3)[C@@H]3[C@]4(OC(C)=O)CO[C@@H]4C[C@H](O)[C@@]3(C)[C@H]1O)C2(C)C | – | 0.00174 |
| CC(=O)N[C@@H](c1ccccc1)[C@@H](O)C(=O)O[C@H]1C[C@@]2(O)[C@@H](OC(=O)c3ccccc3)[C@@H]3[C@]4(OC(C)=O)CO[C@@H]4C[C@H](O)[C@@]3(C)[C@@H](O)[C@H](OC(C)=O)C(=C1C)C2(C)C | – | 0.339 |
| CC(=O)O[C@@H]1C2=C(C)[C@@H](OC(=O)[C@H](O)[C@@H](NC(=O)OCc3ccccc3)c3ccccc3)C[C@@](O)([C@@H](OC(=O)c3ccccc3)[C@@H]3[C@]4(OC(C)=O)CO[C@@H]4C[C@H](O)[C@@]3(C)[C@H]1O)C2(C)C | – | 0.0135 |
| CCC(C)(C)OC(=O)N[C@@H](c1ccccc1)[C@@H](O)C(=O)O[C@H]1C[C@@]2(O)[C@@H](OC(=O)c3ccccc3)[C@@H]3[C@]4(OC(C)=O)CO[C@@H]4C[C@H](O)[C@@]3(C)[C@@H](O)[C@H](OC(C)=O)C(=C1C)C2(C)C | – | 0.000776 |
| CC(=O)O[C@@H]1C2=C(C)[C@@H](OC(=O)[C@H](O)[C@@H](NC(=O)NC(C)(C)C)c3ccccc3)C[C@@](O)([C@@H](OC(=O)c3ccccc3)[C@@H]3[C@]4(OC(C)=O)CO[C@@H]4C[C@H](O)[C@@]3(C)[C@H]1O)C2(C)C | – | 0.00661 |
| CC(=O)O[C@@H]1C2=C(C)[C@@H](OC(=O)[C@H](O)[C@@H](NC(=O)OCC(C)C)c3ccccc3)C[C@@](O)([C@@H](OC(=O)c3ccccc3)[C@@H]3[C@]4(OC(C)=O)CO[C@@H]4C[C@H](O)[C@@]3(C)[C@H]1O)C2(C)C | – | 0.00269 |
| CCOC(=O)N[C@@H](c1ccccc1)[C@@H](O)C(=O)O[C@H]1C[C@@]2(O)[C@@H](OC(=O)c3ccccc3)[C@@H]3[C@]4(OC(C)=O)CO[C@@H]4C[C@H](O)[C@@]3(C)[C@@H](O)[C@H](OC(C)=O)C(=C1C)C2(C)C | – | 0.00603 |
| CC(=O)O[C@@H]1C2=C(C)[C@@H](OC(=O)[C@H](O)[C@@H](NC(=O)OC(C)C)c3ccccc3)C[C@@](O)([C@@H](OC(=O)c3ccccc3)[C@@H]3[C@]4(OC(C)=O)CO[C@@H]4C[C@H](O)[C@@]3(C)[C@H]1O)C2(C)C | – | 0.000955 |
